# Literature values in article PMC13603578, “Biopriming with Schizophyllum commune Polysaccharides Modulates Antioxidant and Biochemical Responses in Pisum sativum L. Seedlings” (Antioxidants, 2026).
# Parameters: method as in PMID 26205049
# Conditions: under the tested conditions
substance,measurement,value
liquiritigenin,DPPH radical-scavenging inhibition,exceeding 65%
